Test [1] concerns Y79 retinoblastoma cells. Briefly: Cell viability assay (resazurin/Alamar Blue), Y79. As to conditions: single drug, read-out: Standalone IC50. It counts as cell-based, human. On the procedure:
(§1) The human retinoblastoma Y79 (ATCC® HTB18™) and WERI (ATCC® HTB169™) cell lines were cultured in RPMI 1640 (ATCC®) medium supplemented with 20% (Y79) or 10% (WERI-RB) fetal bovine serum, 100 U/mL penicillin, and […] streptomycin in a humidified atmosphere of 5% CO2 at 37° C., grown in 75 cm^2 tissue culture flasks. Once confluent, cells were sub cultivated with fresh medium 1:2 to 1:4 ratios after discarding the supernatant and obtaining the gravity-settled aggregates.
(§2) 10 mL of cell suspension were centrifuged at 1000 G for 10 minutes. The supernatant was discarded and the pellet was then resuspended in media to 1.1*10^5 live cells/mL following a viability cell count check. Cells were plated in 96-well plates at 10,000 cells per well. Sample wells were treated with carboplatin, etoposide or vincristine at the concentrations of 1000 uM, 100 uM, 50 uM, 10 uM, 5 uM, 1 uM, 0.5 uM, and 0.1 uM. Untreated and non-cell controls include a 10 uL vehicle, bringing up all wells to 100 uL total volume. Experiments covered 24/48/72 hour incubations at 5% CO2 at 37° C. prior to analyses. Plates ready for analysis were incubated with 10 uL of 10× Alamar Blue Reagent for 1-4 hours (apparent color change) and emission intensity read at 585 nm following a 555 nm excitation.
(§3) Y79 and WERI cells were incubated with Vincristine, Etoposide, or Carboplatin using previously established half-maximal inhibitory concentrations in a fixed-ratio treatment paradigm. Y79 and WERI cells also were incubated with a mixture of Vincristine, Etoposide, or Carboplatin.
In general terms: Alamar Blue is a resazurin reagent that responds to reducing activity.

The test system of test [2] is WERI retinoblastoma cells. Briefly: Cell viability assay (resazurin/Alamar Blue), WERI. It counts as cell-based, human. As to conditions: single drug, read-out: Standalone IC50. On the procedure: as §1, §2, §3
In test [3] the target is T1, TISSEEL fibrin sealant (Homo sapiens, UniProt P02671+P02675+P02679).
T1 construct: purchased
T1 sequence (P02671 20-644 isoform P02671-2 limits assumed): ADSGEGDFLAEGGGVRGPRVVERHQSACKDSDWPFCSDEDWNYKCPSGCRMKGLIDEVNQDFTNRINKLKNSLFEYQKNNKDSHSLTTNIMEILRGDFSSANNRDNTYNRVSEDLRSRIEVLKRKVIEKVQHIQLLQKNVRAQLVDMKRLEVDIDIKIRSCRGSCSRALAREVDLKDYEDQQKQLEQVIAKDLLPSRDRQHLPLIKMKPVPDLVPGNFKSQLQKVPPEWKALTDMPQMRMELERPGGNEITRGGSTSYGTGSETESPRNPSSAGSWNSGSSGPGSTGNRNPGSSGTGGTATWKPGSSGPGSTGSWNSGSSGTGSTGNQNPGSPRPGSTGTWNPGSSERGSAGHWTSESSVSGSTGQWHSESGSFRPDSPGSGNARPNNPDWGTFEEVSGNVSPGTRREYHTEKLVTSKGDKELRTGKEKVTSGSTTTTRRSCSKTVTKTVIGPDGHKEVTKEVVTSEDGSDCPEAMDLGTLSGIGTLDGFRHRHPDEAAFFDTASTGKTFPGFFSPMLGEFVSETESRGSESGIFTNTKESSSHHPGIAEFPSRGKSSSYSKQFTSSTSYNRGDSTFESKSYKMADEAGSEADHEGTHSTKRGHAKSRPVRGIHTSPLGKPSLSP
T1 sequence (P02675 45-491 limits assumed): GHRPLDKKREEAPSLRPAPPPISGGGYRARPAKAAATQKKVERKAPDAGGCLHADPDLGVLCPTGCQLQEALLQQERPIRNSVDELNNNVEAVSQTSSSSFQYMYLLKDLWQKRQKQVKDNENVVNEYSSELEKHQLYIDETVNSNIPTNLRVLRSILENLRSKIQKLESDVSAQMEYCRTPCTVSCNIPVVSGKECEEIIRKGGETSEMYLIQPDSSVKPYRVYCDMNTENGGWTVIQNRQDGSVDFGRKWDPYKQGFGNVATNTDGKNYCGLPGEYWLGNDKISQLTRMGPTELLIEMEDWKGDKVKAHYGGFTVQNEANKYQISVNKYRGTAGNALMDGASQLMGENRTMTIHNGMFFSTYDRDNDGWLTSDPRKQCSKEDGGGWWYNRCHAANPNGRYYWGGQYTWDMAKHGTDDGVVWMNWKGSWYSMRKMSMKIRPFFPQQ
T1 sequence (P02679 27-437 isoform P02679-2 limits assumed): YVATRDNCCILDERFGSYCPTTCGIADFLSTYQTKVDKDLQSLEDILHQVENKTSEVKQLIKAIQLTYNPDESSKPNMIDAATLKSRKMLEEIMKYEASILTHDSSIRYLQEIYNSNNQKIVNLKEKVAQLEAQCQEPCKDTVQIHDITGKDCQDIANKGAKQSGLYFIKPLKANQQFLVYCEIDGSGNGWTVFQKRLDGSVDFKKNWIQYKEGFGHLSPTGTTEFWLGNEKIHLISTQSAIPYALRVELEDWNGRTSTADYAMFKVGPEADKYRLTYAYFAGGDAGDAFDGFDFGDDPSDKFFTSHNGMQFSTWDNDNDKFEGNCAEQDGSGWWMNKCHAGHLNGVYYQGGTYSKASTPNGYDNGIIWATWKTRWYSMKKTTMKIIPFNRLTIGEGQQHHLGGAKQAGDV
Briefly: Scanning electron microscopy branching analysis of drug-embedded fibrin sealant. The note with it: fibrin sealant admixed with 1 mM drug, SEM 5,000x, ImageJ skeleton analysis. The procedure:
FIGS. 8A to 8D depict fiber analysis of VEC-embedded fibrin sealant. Commercially available fibrin sealant was admixed with 1 mM additions of Vincristine, Etoposide, or Carboplatin. Samples were critically point dried and imaged by scanning electron microscopy at 5,000× magnification at various points around the samples. Images were uploaded into ImageJ for fiber analysis. […] In FIG. 8B, the images were binarized to 8-bit grayscale. In FIG. 8C, the binarized image was skeletonized to produce a representation of the fiber network. The Analyze Skeleton function was used to quantify fiber branches and junctions. […] Images analysed were taken at 5,000× magnificent and compared over a 800×800 pixel area. TISSEEL™ or TISSEEL™ admixed with chemotherapeutic drug (1 mM final concentration) was prepared according to the IFU. In short, 2 mM additions of chemotherapy were transferred via syringe and needle to the thrombin vial (500 IU/mL thrombin) during preparation and placed in a Fibrinotherm to spin and heat the mixtures to 37 degrees celsius. Following complete dissolution of both thrombin and fibrinogen solutions, each solution was pulled up into respective syringes and loaded in the Duploject spray system accompanying the kit. The 1 mL volumes of thrombin and fibrinogen (2 mL total) were sprayed onto collagen casing. Immediately following coagulation (˜30 seconds), the samples were washed 3× in cacodylate buffer for 10 minutes and fixed in 2% glutaraldehyde buffer (Electron Microscopy Sciences). Fixed clots were washed, serially dehydrated with ethanol, and dried with hexamethyldisilizane (Electron Microscopy Sciences). Clots were allowed to air dry overnight thereafter. Clots were then teased apart with forceps and mounted on aluminum sample supports with carbon adhesive tape. Samples were sputter coated with 20 nm iridium metal in a Leica ACE600 and analyzed by scanning electron microscopy (FEI Quanta 650 FEG). Branching analysis was performed using 2D images cross-sectional cuts of fibrin clots. Representative images and sections displaying easily discernible fibrin branching characteristics were selected from each group. Images were processed using ImageJ's skeleton analysis function. In short, images were first binarized to delineate the image further into branch and background sections. Binary images were then placed through the Analyze Skeleton (2D/3D) function with no pruning or selected parameters. The output file included details such as branch lengths, branch numbers, and number of junctions.

Read-outs that look alike come from different tables or passages of the source.

One may read the IC50 as the concentration needed to halve the response being measured. For `N.N.O=C([O-])C1(C(=O)[O-])CCC1.[Pt+2]` [Carboplatin], in test [1], the IC50 was 1.1 µM. In test [2], the IC50 turned out to be 1 µM. In addition, in test [3], the “Avg Branch length” value is 19 nm, the “Branch/Junction Ratio” value worked out at 68.0, the Junctions is reported as 148 +/− 2.6 and the “Max Branch Number” value is reported as 10065 +/− 142.
For the compound `COc1cc([C@@H]2c3cc4c(cc3[C@@H](O[C@@H]3O[C@@H]5CO[C@@H](C)O[C@H]5[C@H](O)[C@H]3O)[C@H]3COC(=O)[C@H]23)OCO4)cc(OC)c1O` [Etoposide], the IC50 in test [1] (Homo sapiens) was determined as 6 µM. Further, the IC50 in test [2] (Homo sapiens) was 2.7 µM. In addition, in test [3], the “Avg Branch length” value was found to be 21 nm, the “Branch/Junction Ratio” value amounted to 66.2, the Junctions was 125 +/− 2.1 and the “Max Branch Number” value is 8272 +/− 140.
Regarding `CC[C@]1(O)C[C@H]2CN(CCc3c([nH]c4ccccc34)[C@@](C(=O)OC)(c3cc4c(cc3OC)N(C=O)[C@H]3[C@@](O)(C(=O)OC)[C@H](OC(C)=O)[C@]5(CC)C=CCN6CC[C@]43[C@@H]65)C2)C1` [Vincristine], in test [1] (Homo sapiens), the concentration for half-maximal inhibition (IC50) was 0.1 µM. Further, the IC50 in test [2] (Homo sapiens) came out at 2.9 µM. In addition, in test [3], the “Avg Branch length” value was found to be 22 nm, the “Branch/Junction Ratio” value turned out to be 55.7, the Junctions was 136 +/− 2.3 and the “Max Branch Number” value is 7580 +/− 125.

For the origin of these results see US20220088155A1, “SUBCONJUNCTIVAL CHEMOTHERAPEUTIC DELIVERY BY FIBRIN SEALANT IN THE TREATMENT OF RETINOBLASTOMA” (BAXTER INTERNATIONALINC., priority 2019, published 2022).
